Where two headings read alike, the source gives them in different places.
Legend:
Pea aphid = test: Systemic activity, soil-watering, pea aphid; type: in vivo, Acyrthosiphon pisum [Harris]
Description: (§1) Initial Contact Activity: One half gram of test compound was dissolved in 40 ml of acetone and this solution was dispersed in 360 ml of water containing one drop of isooctylphenyl polyethoxyethanol. Aliquots of this solution, which corresponds to 1250 ppm of active ingredient, were diluted with an appropriate amount of water to provide solutions containing various concentrations of active ingredient. Test organisms and techniques were as follows: The activity against the Mexican bean beetle (Epilachna varivestis Muls.) and the southern armyworm (Spodoptera eridania [Cram.]) was evaluated by dipping the leaves of pinto bean plants into the test solution and infesting the leaves with the appropriate immature-form insects when the foiliage had dried; the activity against the pea aphid (Acyrthosiphon pisum [Harris]) was evaluated on broad bean plants whose leaves were dipped before infestation with adult aphids; the activity against two-sotted spider mites (Tetranychus urticae Koch) was evaluated on pinto bean plants whose leaves were dipped after infestation with adult mites; the activity against the milkweed bug (Oncopeltus fasciatus [Dallas]), and the plum curculio (Conotrachelus nenuphar [Herbst]) was evaluated by spraying the test solutions into glass dishes or jars containing the adult insects; the activity against the confused flour beetle (Tribolium confusum duVal) was evaluated by introducing the insects into glass dishes which had been previously sprayed with test solution and allowed to dry. All organisms in the test were maintained in a holding room at 80° F and 50% relative humidity for an exposure period of 48 hours. At the end of this time, the dead and living insects or mites were counted, and the percent kill was calculated.
(§2) Systemic Activity: Systemic activity was measured using a soil-watering technique. Test organisms were Mexican bean beetle, southern armyworm, pea aphid, and mites on plants as described above in this Example. With appropriate precautions to avoid contact of the solution with the test plant surfaces, 25 ml of a test solution, prepared as above to contain the desired amount of active ingredient, were poured evenly over the surface of the soil in which the plant was growing. The treated plants were maintained under normal growing conditions for three days to permit translocation of the toxicant, after which the leaves were infested. Two days after infestation, counts of living and dead insects were made.

Mexican bean beetle [1] = test: Residual (7-day) contact activity, Mexican bean beetle; type: in vivo, Epilachna varivestis Muls.; conditions: Epilachna varivestis, 168 h; for mortality at 625 ppm: read-out: Percent Kill, residual 7-day, BB, 625 PPM
Description: as §1
(§3) Residual Contact Activity: The residual contact activity of the compounds was determined on the same organisms using the techniques described above, except that in each case the treated surface was allowed to dry and was exposed to normal light and air for seven days before introduction of the mites or insects.

Granary Weevil = test: Residual (7-day) contact activity, granary weevil; type: in vivo; conditions: Sitophilus granarius, 168 h, read-out: Percent Kill
Mexican bean beetle [2] = test: Initial contact activity, leaf dip, Mexican bean beetle; type: in vivo, Epilachna varivestis Muls.; conditions: for mortality at 156 ppm / mortality at 312 ppm / mortality at 625 ppm / mortality at 1250 ppm / mortality at 20 ppm / mortality at 39 ppm: Epilachna varivestis, foliar, 48 h
Description: as §1

Two-spotted spider mite = test: Residual (7-day) contact activity, two-spotted spider mite; type: in vivo, Tetranychus urticae Koch
Description: as §1, §3

Confused flour beetle = test: Initial contact activity, sprayed dishes, confused flour beetle; type: in vivo, Tribolium confusum duVal; conditions: Tribolium confusum, read-out: Percent Kill
Description: as §1

Southern armyworm = test: Systemic activity, soil-watering, southern armyworm; type: in vivo, Spodoptera eridania [Cram.]; conditions: Spodoptera eridania, 48 h, read-out: Percent Kill
Description: as §1, §2

insects and mites = test: Systemic activity (soil-watering), insects and mites in general; type: in vivo; conditions: in words
Description: as §2

[3] = Acyrthosiphon pisum, 48 h, systemic, PA, 10 PPM, read-out: Percent Kill
[4] = Acyrthosiphon pisum, 48 h, systemic, PA, 39 PPM, read-out: Percent Kill
[5] = residual 7-day, BB, read-out: Percent Kill
[6] = residual 7-day, BB, 1250 PPM, read-out: Percent Kill
[7] = initial, BB, 156 PPM, 48 hours, read-out: Percent Kill
[8] = initial, BB, 312 PPM, 48 hours, read-out: Percent Kill
[9] = initial, BB, 625 PPM, 48 hours, read-out: Percent Kill
[10] = initial, BB, 1250 PPM, 48 hours, read-out: Percent Kill
[11] = Tetranychus urticae, 168 h, residual 7-day, SM, 156 PPM, read-out: Percent Kill
[12] = Tetranychus urticae, 168 h, residual 7-day, SM, 312 PPM, read-out: Percent Kill
[13] = Tetranychus urticae, 168 h, residual 7-day, SM, 1250 PPM, read-out: Percent Kill
[14] = initial, FB, 1250 PPM, 48 hours

CCCCN(CCCC)SN(C)C(=O)ON=CC(C)(C)SC [Example III, 2-methyl-2-(methylthio)propanal O-[(dibutylaminosulfenyl)(methyl)carbamoyl]oxime]
mortality at 10 ppm (Pea aphid; [3]): 0%
mortality at 39 ppm (Pea aphid; [4]): 64%
mortality at 312 ppm (Mexican bean beetle [1]; [5]): 0%
mortality at 1250 ppm (Mexican bean beetle [1]; [6]): 92%
mortality at 312 ppm (Granary Weevil; residual 7-day, GW, 312 PPM): 0%
mortality at 1250 ppm (Granary Weevil; residual 7-day, GW, 1250 PPM): 17%
mortality at 156 ppm (Mexican bean beetle [2]; [7]): 40%
mortality at 312 ppm (Mexican bean beetle [2]; [8]): 63%
mortality at 625 ppm (Mexican bean beetle [2]; [9]): 95%
mortality at 1250 ppm (Mexican bean beetle [2]; [10]): 100%
mortality at 156 ppm (Two-spotted spider mite; [11]): 18%
mortality at 312 ppm (Two-spotted spider mite; [12]): 45%
mortality at 1250 ppm (Two-spotted spider mite; [13]): 100%
mortality at 156 ppm (Confused flour beetle; initial, FB, 156 PPM, 48 hours): 0%
mortality at 312 ppm (Confused flour beetle; initial, FB, 312 PPM, 48 hours): 7.5%
mortality at 1250 ppm (Confused flour beetle; [14]): 70%
mortality at 312 ppm (Southern armyworm; systemic, AW, 312 PPM): 0%
mortality at 625 ppm (Southern armyworm; systemic, AW, 625 PPM): 68%

CSC(C)(C)C=NOC(=O)N(C)SN(C)Cc1ccccc1 [Example I, 2-methyl-2-(methylthio)propanol O-[(N-benzyl-N-methylaminosulfenyl)(methyl)carbamoyl]oxime]
mortality at 10 ppm (Pea aphid; [3]): 0%
mortality at 39 ppm (Pea aphid; [4]): 100%
mortality at 312 ppm (Mexican bean beetle [1]; [5]): 0%
mortality at 1250 ppm (Mexican bean beetle [1]; [6]): 89%
mortality at 312 ppm (Granary Weevil; residual 7-day, GW, 312 PPM): 41%
mortality at 1250 ppm (Granary Weevil; residual 7-day, GW, 1250 PPM): 100%
mortality at 156 ppm (Mexican bean beetle [2]; [7]): 82%
mortality at 312 ppm (Mexican bean beetle [2]; [8]): 94%
mortality at 625 ppm (Mexican bean beetle [2]; [9]): 100%
mortality at 1250 ppm (Mexican bean beetle [2]; [10]): 100%
mortality at 156 ppm (Two-spotted spider mite; [11]): 3.2%
mortality at 312 ppm (Two-spotted spider mite; [12]): 63%
mortality at 1250 ppm (Two-spotted spider mite; [13]): 99.5%
mortality at 156 ppm (Confused flour beetle; initial, FB, 156 PPM, 48 hours): 5%
mortality at 312 ppm (Confused flour beetle; initial, FB, 312 PPM, 48 hours): 5%
mortality at 1250 ppm (Confused flour beetle; [14]): 2.5%
mortality at 312 ppm (Southern armyworm; systemic, AW, 312 PPM): 50%
mortality at 625 ppm (Southern armyworm; systemic, AW, 625 PPM): 84%

CSC(C)(C)C=NOC(=O)N(C)SN1CCOCC1 [Example II, 2-methyl-2-(methylthio)propanol O-[(N-methyl-N-morpholinosulfenyl)carbamoyl]oxime]
mortality at 10 ppm (Pea aphid; [3]): 40%
mortality at 39 ppm (Pea aphid; [4]): 100%
mortality at 312 ppm (Mexican bean beetle [1]; [5]): 88%
mortality at 1250 ppm (Mexican bean beetle [1]; [6]): 100%
mortality at 312 ppm (Granary Weevil; residual 7-day, GW, 312 PPM): 20%
mortality at 1250 ppm (Granary Weevil; residual 7-day, GW, 1250 PPM): 100%
mortality at 156 ppm (Mexican bean beetle [2]; [7]): 100%
mortality at 312 ppm (Mexican bean beetle [2]; [8]): 100%
mortality at 625 ppm (Mexican bean beetle [2]; [9]): 100%
mortality at 1250 ppm (Mexican bean beetle [2]; [10]): 100%
mortality at 156 ppm (Two-spotted spider mite; [11]): 76%
mortality at 312 ppm (Two-spotted spider mite; [12]): 93%
mortality at 1250 ppm (Two-spotted spider mite; [13]): 97%
mortality at 156 ppm (Confused flour beetle; initial, FB, 156 PPM, 48 hours): 5%
mortality at 312 ppm (Confused flour beetle; initial, FB, 312 PPM, 48 hours): 51%
mortality at 1250 ppm (Confused flour beetle; [14]): 80%
mortality at 312 ppm (Southern armyworm; systemic, AW, 312 PPM): 100%
mortality at 625 ppm (Southern armyworm; systemic, AW, 625 PPM): 100%

CSC(C)(C)C=NOC(=O)N(C)SN(C)C [Example IV, 2-Methyl-2-(methylthio)propanal O-[(dimethylaminosulfenyl)-(methyl)carbamoyl]oxime]
systemic activity compared with aldicarb (insects and mites): substantially the same as aldicarb
mortality at 5 ppm (Pea aphid; Acyrthosiphon pisum, 48 h, systemic, PA, 5 PPM, read-out: Percent Kill): 100%
mortality at 10 ppm (Pea aphid; [3]): 100%
mortality at 312 ppm (Pea aphid; Acyrthosiphon pisum, 48 h, systemic, PA, 312 PPM, read-out: Percent Kill): 100%
mortality at 625 ppm (Mexican bean beetle [1]): 40%
mortality at 312 ppm (Mexican bean beetle [1]; [5]): 17%
mortality at 1250 ppm (Mexican bean beetle [1]; [6]): 50%
mortality at 20 ppm (Mexican bean beetle [2]; initial, BB, 20 PPM, 48 hours, read-out: Percent Kill): 5%
mortality at 39 ppm (Mexican bean beetle [2]; initial, BB, 39 PPM, 48 hours, read-out: Percent Kill): 6%
mortality at 156 ppm (Mexican bean beetle [2]; [7]): 39%
mortality at 1250 ppm (Mexican bean beetle [2]; [10]): 100%
mortality at 625 ppm (Two-spotted spider mite; Tetranychus urticae, 168 h, read-out: Percent Kill, residual 7-day, SM, 625 PPM): 0%
mortality at 39 ppm (Two-spotted spider mite; Tetranychus urticae, 168 h, residual 7-day, SM, 39 PPM, read-out: Percent Kill): 18%
mortality at 156 ppm (Two-spotted spider mite; [11]): 52%
mortality at 1250 ppm (Two-spotted spider mite; [13]): 100%
mortality at 39 ppm (Southern armyworm; systemic, AW, 39 PPM): 0%
mortality at 312 ppm (Southern armyworm; systemic, AW, 312 PPM): 100%

CNC(=O)ON=CC(C)(C)SC [Aldicarb, 2-methyl-2-(methylthio)propanal O-(methylcarbamoyl)oxime]
mortality at 5 ppm (Pea aphid; Acyrthosiphon pisum, 48 h, read-out: Percent Kill, systemic, PA, 5 PPM): 100%
mortality at 10 ppm (Pea aphid; Acyrthosiphon pisum, 48 h, read-out: Percent Kill, systemic, PA, 10 PPM): 90%
mortality at 39 ppm (Pea aphid; Acyrthosiphon pisum, 48 h, read-out: Percent Kill, systemic, PA, 39 PPM): 100%
mortality at 321 ppm (Pea aphid; Acyrthosiphon pisum, 48 h, read-out: Percent Kill, systemic, PA, 321 PPM): 100%
Percent Kill (Pea aphid; systemic, PA, 10 PPM, 2880 min): 100%
mortality at 625 ppm (Mexican bean beetle [1]): 47%
mortality at 1250 ppm (Mexican bean beetle [1]; read-out: Percent Kill, residual 7-day, BB, 1250 PPM): 100%
mortality at 312 ppm (Granary Weevil): 3.3%
mortality at 1250 ppm (Granary Weevil): 0%
mortality at 20 ppm (Mexican bean beetle [2]; read-out: Percent Kill, initial, BB, 20 PPM, 48 hours): 0%
mortality at 39 ppm (Mexican bean beetle [2]; read-out: Percent Kill, initial, BB, 39 PPM, 48 hours): 40%
mortality at 156 ppm (Mexican bean beetle [2]; read-out: Percent Kill, initial, BB, 156 PPM, 48 hours): 89%
mortality at 312 ppm (Mexican bean beetle [2]; read-out: Percent Kill, initial, BB, 312 PPM, 48 hours): 95%
mortality at 625 ppm (Mexican bean beetle [2]; read-out: Percent Kill, initial, BB, 625 PPM, 48 hours): 100%
mortality at 1250 ppm (Mexican bean beetle [2]; read-out: Percent Kill, initial, BB, 1250 PPM, 48 hours): 100%
Percent Kill (Mexican bean beetle [2]; initial, BB, 156 PPM, 48 hours, 2880 min): 91%
mortality at 39 ppm (Two-spotted spider mite; Tetranychus urticae, 168 h, read-out: Percent Kill, residual 7-day, SM, 39 PPM): 17%
mortality at 156 ppm (Two-spotted spider mite; Tetranychus urticae, 168 h, read-out: Percent Kill, residual 7-day, SM, 156 PPM): 91.5%
mortality at 312 ppm (Two-spotted spider mite; Tetranychus urticae, 168 h, read-out: Percent Kill, residual 7-day, SM, 312 PPM): 97%
mortality at 1250 ppm (Two-spotted spider mite; Tetranychus urticae, 168 h, read-out: Percent Kill, residual 7-day, SM, 1250 PPM): 98.6%
Percent Kill (Two-spotted spider mite; residual 7-day, SM, 156 PPM): 90%
mortality at 156 ppm (Confused flour beetle; 48 h): 5%
mortality at 312 ppm (Confused flour beetle; 48 h): 10%
mortality at 1250 ppm (Confused flour beetle; 48 h): 90%
mortality at 39 ppm (Southern armyworm): 50%
mortality at 312 ppm (Southern armyworm): 100%
mortality at 625 ppm (Southern armyworm): 100%

— patent publication US4108991A, “N-aminosulfenyl derivatives of aldicarb” (priority 1976, dated 1978)
